Results on 19 compounds are retold here after ChEMBL document CHEMBL4622905, “Synthesis and antifungal activity of new hybrids pyrimido[4,5-d]pyridazinone-N-acylhydrazones” (Bioorg Med Chem Lett, 2020).

Molecules are shown by their SMILES. Values after ≈ are worked out from the molar mass of the structure shown. Active and inactive are the calls of the source.

Series [1] relates to Paracoccidioides brasiliensis. Kind of series: Antifungal activity against Paracoccidioides brasiliensis Pb18. The series is classed as functional.
The test system of series [2] is Paracoccidioides brasiliensis. Kind of series: Antifungal activity against Paracoccidioides brasiliensis Pb18 in presence of amphotericin B. The format is functional.
Series [3] can be described thus: Selectivity index, ratio for cytotoxicity for monkey Vero cells to MIC for Paracoccidioides brasiliensis Pb18. The series is classed as toxicity, cell-based.
Series [4] has as its system HeLa. Kind of series: Cytotoxicity against human HeLa cells at 512 ug/ml. The series is classed as cell-based.
Series [5] relates to Candida. Kind of series: Antifungal activity against Candida. The series is classed as functional, organism-based.
Series [6] has as its system Vero. Kind of series: Cytotoxicity against monkey Vero cells at 512 ug/ml. The format is cell-based. Conditions: chlorocebus sabaeus.
Series [7] concerns Paracoccidioides brasiliensis. Kind of series: Fungicidal activity against Paracoccidioides brasiliensis Pb18. The series is classed as functional.
A short description of series [8]: Selectivity index, ratio for cytotoxicity for human HeLa cells to MIC for Paracoccidioides brasiliensis Pb18. The format is toxicity, cell-based.
In series [9] the test system is Paracoccidioides brasiliensis. Kind of series: Synergistic antifungal activity against Paracoccidioides brasiliensis Pb18 assessed as fractional inhibitory concentration in presence of amphotericin B. The series is classed as functional.
Series [10] relates to Paracoccidioides brasiliensis. Kind of series: Antifungal activity against Paracoccidioides brasiliensis Pb18 in presence of 0.125 ug/ml amphotericin B. The format is functional.
Series [11] relates to Paracoccidioides brasiliensis. Kind of series: Antifungal activity against Paracoccidioides brasiliensis Pb18 in presence of 0.06 ug/ml amphotericin B. The series is classed as functional.
The subject of series [12] is Paracoccidioides brasiliensis. Kind of series: Antifungal activity against Paracoccidioides brasiliensis Pb18 in presence of 0.25 ug/ml amphotericin B. The format is functional.
Series [13] concerns Candida tropicalis. Kind of series: Antifungal activity against Candida tropicalis. The format is functional.
Series [14] deals with Candida albicans. Kind of series: Antifungal activity against Candida albicans. The series is classed as functional.
The subject of series [15] is Paracoccidioides brasiliensis. Kind of series: Antifungal activity against Paracoccidioides brasiliensis Pb18 in presence of 0.01 ug/ml amphotericin B. The series is classed as functional.
The subject of series [16] is Nakaseomyces glabratus. Kind of series: Antifungal activity against Candida glabrata. The format is functional.

Broadly, the MIC is the smallest concentration in the dilution series that meets the test's criterion for growth inhibition. `NNC(=O)c1n[nH]c(=O)c2nc(-c3ccccc3)ncc12` yielded an MIC in [1] of over 256 µg/mL.
The term MFC denotes the lowest tested concentration that kills the fungus rather than only halting it. On to `COc1cc(/C=N/NC(=O)c2n[nH]c(=O)c3nc(-c4ccccc4)ncc23)cc(OC)c1O`, for which the MIC is 16 µg/mL in [2], 64 µg/mL (≈ 143 µM) in series [1] and 0.5 µg/mL in series [10]. The selectivity ratio in [3] and in series [8] was 4 in each case. Moreover, the Activity in series [4] and in series [6] was over 80% in each case. Moreover, the result in series [5] was inactive. Besides, the MFC in series [7] amounted to 64 µg/mL (≈ 143 µM). Also, the FIC in series [9] was 0.75.
For the compound `O=C(N/N=C/c1ccc(O)cc1)c1n[nH]c(=O)c2nc(-c3ccccc3)ncc12`, the MIC in [2] amounted to 16 µg/mL; in [11], 0.5 µg/mL; in series [1] it was 32 µg/mL (≈ 82.8 µM). The selectivity ratio in series [3] and in [8] was 5 throughout. Besides, the Activity in series [4] and in [6] was over 80% each time. Further, the outcome in series [5] was inactive. Moreover, the MFC in series [7] came to 32 µg/mL (≈ 82.8 µM). The FIC in series [9] was determined as 0.37.
Regarding `O=C(N/N=C/c1ccccc1O)c1n[nH]c(=O)c2nc(-c3ccccc3)ncc12`, the results for the MIC in series [2], in [1] and in series [10] were 8 µg/mL, 128 µg/mL (≈ 331 µM) and 0.25 µg/mL, respectively. The selectivity ratio in series [3] and in series [8] was 3 each time. The Activity in [4] and in series [6] was over 80% throughout. Besides, the result in series [5] was inactive. The compound further yielded an MFC in [7] of 128 µg/mL (≈ 331 µM). Also, the FIC in [9] stood at 0.625.
As to `CN(C)c1ccc(/C=N/NC(=O)c2n[nH]c(=O)c3nc(-c4ccccc4)ncc23)cc1`, in series [1], the MIC is over 256 µg/mL.
Still for that read-out and setting: the figure for `O=C(N/N=C/c1cccs1)c1n[nH]c(=O)c2nc(-c3ccccc3)ncc12` is over 256 µg/mL.
On the same count and under the same terms, under `CCC(C)n1ncn(-c2ccc(N3CCN(c4ccc(OCC5COC(Cn6cncn6)(c6ccc(Cl)cc6Cl)O5)cc4)CC3)cc2)c1=O` (stereo not drawn) [ITRACONAZOLE] stands 1 µg/mL (≈ 1.42 µM).
As to `COc1ccc(/C=N/NC(=O)c2n[nH]c(=O)c3nc(-c4ccccc4)ncc23)cc1OC`, the minimum inhibitory concentration (MIC) in [2] amounted to 16 µg/mL; in series [12] it was 0.5 µg/mL; in series [1], 64 µg/mL (≈ 149 µM). Also, the selectivity ratio in series [3] and in series [8] was 4 throughout. Further, the Activity in series [4] and in [6] was over 80% throughout. The result in series [5] was inactive. The compound further came in with an MFC in series [7] of 64 µg/mL (≈ 149 µM). In series [9], the FIC was 0.625.
In the case of `O=C(N/N=C/c1cc([N+](=O)[O-])ccc1O)c1n[nH]c(=O)c2nc(-c3ccccc3)ncc12`, the MIC is 8 µg/mL in series [2], 128 µg/mL (≈ 297 µM) in [1] and 0.25 µg/mL in [10]. Moreover, the selectivity ratio in [3] and in series [8] was 3 each time. The Activity in series [4] and in series [6] was over 80% throughout. The result in series [5] was inactive. The compound also had a minimum fungicidal concentration (MFC) in series [7] of 128 µg/mL (≈ 297 µM). For the same compound, in series [9], the FIC worked out at 0.625.
`COc1cc(/C=N/NC(=O)c2n[nH]c(=O)c3nc(-c4ccccc4)ncc23)ccc1O` returned an MIC in [1] of over 256 µg/mL.
In turn, `O=C(N/N=C/c1cccc([N+](=O)[O-])c1)c1n[nH]c(=O)c2nc(-c3ccccc3)ncc12` gave an MIC in series [1] of over 256 µg/mL.
With `O=C(N/N=C/c1ccccc1)c1n[nH]c(=O)c2nc(-c3ccccc3)ncc12`, the MIC in [2] stood at 0.031 µg/mL; in series [13], 8 µg/mL (≈ 21.6 µM); in series [14], 4 µg/mL (≈ 10.8 µM); in series [15], 1 µg/mL; in series [1] it was 0.125 µg/mL (≈ 0.337 µM). The selectivity ratio in [3] and in series [8] was 13 in each case. Moreover, the Activity in [4] and in series [6] was over 80% throughout. Further, in series [7], the MFC was determined as 0.5 µg/mL (≈ 1.35 µM). Also, in [9], the FIC was found to be 0.134.
For the compound `O=C(N/N=C/c1ccc(F)cc1)c1n[nH]c(=O)c2nc(-c3ccccc3)ncc12`, the MIC in series [2] was 8 µg/mL; in series [12], 0.5 µg/mL; in [1] it was 32 µg/mL (≈ 82.4 µM). The selectivity ratio in [3] and in [8] was 5 in each case. In addition, the Activity in [4] and in series [6] was over 80% throughout. Besides, the outcome in series [5] was inactive. Further, the MFC in series [7] amounted to 32 µg/mL (≈ 82.4 µM). In addition, the FIC in series [9] amounted to 0.625.
For `O=C(N/N=C/c1ccc(-c2cccs2)s1)c1n[nH]c(=O)c2nc(-c3ccccc3)ncc12`, in series [1], the MIC was over 256 µg/mL.
As for `COc1ccc(/C=N/NC(=O)c2n[nH]c(=O)c3nc(-c4ccccc4)ncc23)cc1`, the MIC in series [1] is over 256 µg/mL.
Compound `O=C(N/N=C/c1ccc([N+](=O)[O-])cc1)c1n[nH]c(=O)c2nc(-c3ccccc3)ncc12` yielded an MIC in series [1] of over 256 µg/mL.
For `C[C@@H]1[C@H](O)[C@@H](C)/C=C/C=C/C=C/C=C/C=C/C=C/C=C/[C@H](O[C@@H]2O[C@H](C)[C@@H](O)[C@H](N)[C@@H]2O)C[C@@H]2O[C@](O)(C[C@@H](O)C[C@@H](O)[C@H](O)CC[C@@H](O)C[C@@H](O)CC(=O)O[C@H]1C)C[C@H](O)[C@H]2C(=O)O` [AMPHOTERICIN B], in [7], the MFC turned out to be 1 µg/mL (≈ 1.08 µM). In addition, the MIC in [1] worked out at 1 µg/mL (≈ 1.08 µM).
Turning to `O=C(N/N=C/c1cc(Cl)ccc1O)c1n[nH]c(=O)c2nc(-c3ccccc3)ncc12`, the MIC in [2] was 4 µg/mL; in series [11], 0.5 µg/mL; in series [16], 4 µg/mL (≈ 9.51 µM); in series [1] it was 64 µg/mL (≈ 152 µM). Further, the selectivity ratio in [3] and in [8] was 4 throughout. Moreover, the Activity in series [4] and in [6] was over 80% throughout. Also, the MFC in [7] was found to be 64 µg/mL (≈ 152 µM). For the same compound, the FIC in series [9] was 0.245.
Compound `O=C(N/N=C/c1ccccn1)c1n[nH]c(=O)c2nc(-c3ccccc3)ncc12` showed an MIC in series [1] of over 256 µg/mL.
